Patent US10004701B2, “Methods and compositions for treating infection” (UNIVERSITY OF ROCHESTER, priority 2012, dated 2018)
Counter-ions that a name gives are not always drawn. Like-named read-outs stand apart in the source and are kept apart here.

Tests used:
Assay in all cases: AK assay 384-well format, Prestwick library screening
E. coli = assay type: cell-based, Escherichia coli; details: 50 μM final drug concentration; for fold induction at 50 µM: Escherichia coli, 3 h
K. pneumoniae = assay type: cell-based, Klebsiella pneumoniae; details: 50 μM final drug concentration; for fold induction at 50 µM: Klebsiella pneumoniae, 3 h
E. cloacae = assay type: cell-based, Enterobacter cloacae; details: 50 μM final drug concentration; for fold induction at 50 µM: Enterobacter cloacae, 3 h
[1] = system: S. aureus strain USA300-0114; assay type: cell-based, Staphylococcus aureus; details: 50 μM final drug concentration; for fold induction at 50 µM: Staphylococcus aureus, USA300, 3 h
E. faecium = assay type: cell-based, Enterococcus faecium; details: 50 μM final drug concentration; for fold induction at 50 µM: Enterococcus faecium, 3 h
P. aeruginosa = assay type: cell-based, Pseudomonas aeruginosa; details: 50 μM final drug concentration; for fold induction at 50 µM: Pseudomonas aeruginosa, 3 h
[2] = system: A. baumannii strain 98-37-09; assay type: cell-based, Acinetobacter baumannii; details: 50 μM final drug concentration; for fold induction at 50 µM: Acinetobacter baumannii, 983709, 3 h
[3] = planktonic, cutoff for positive-scoring molecules 3-fold increase
[4] = cutoff for positive-scoring molecules 3-fold increase, read-out: AK-based Prestwick Library Screening Results, E. coli (fold increase in extracellular AK activity)
[5] = cutoff for positive-scoring molecules 3-fold increase, read-out: AK-based Prestwick Library Screening Results, K. pneumoniae (fold increase in extracellular AK activity)
[6] = cutoff for positive-scoring molecules 3-fold increase, read-out: AK-based Prestwick Library Screening Results, E. cloacae (fold increase in extracellular AK activity)
[7] = cutoff for positive-scoring molecules 3-fold increase, read-out: AK-based Prestwick Library Screening Results, S. aureus (fold increase in extracellular AK activity)
[8] = cutoff for positive-scoring molecules 3-fold increase, read-out: AK-based Prestwick Library Screening Results, E. faecium (fold increase in extracellular AK activity)
[9] = cutoff for positive-scoring molecules 3-fold increase, read-out: AK-based Prestwick Library Screening Results, P. aeruginosa (fold increase in extracellular AK activity)
[10] = cutoff for positive-scoring molecules 3-fold increase, read-out: AK-based Prestwick Library Screening Results, A. baumannii (fold increase in extracellular AK activity)
[11] = planktonic, cutoff for positive 3-fold increase, read-out: AK-based Prestwick Library Screening Results, E. coli (fold increase in extracellular AK activity)
[12] = planktonic, cutoff for positive 3-fold increase, read-out: AK-based Prestwick Library Screening Results, K. pneumoniae (fold increase in extracellular AK activity)
[13] = planktonic, cutoff for positive 3-fold increase, read-out: AK-based Prestwick Library Screening Results, E. cloacae (fold increase in extracellular AK activity)
[14] = planktonic, cutoff for positive 3-fold increase, read-out: AK-based Prestwick Library Screening Results, S. aureus (fold increase in extracellular AK activity)
[15] = planktonic, cutoff for positive 3-fold increase, read-out: AK-based Prestwick Library Screening Results, E. faecium (fold increase in extracellular AK activity)
[16] = planktonic, cutoff for positive 3-fold increase, read-out: AK-based Prestwick Library Screening Results, P. aeruginosa (fold increase in extracellular AK activity)
[17] = planktonic, cutoff for positive 3-fold increase, read-out: AK-based Prestwick Library Screening Results, A. baumannii (fold increase in extracellular AK activity)
[18] = 384-well format, cutoff for positive-scoring molecules 3-fold increase, read-out: AK-based Prestwick Library Screening Results, E. coli (increase in extracellular AK activity)
[19] = 384-well format, cutoff for positive-scoring molecules 3-fold increase, read-out: AK-based Prestwick Library Screening Results, K. pneumoniae (increase in extracellular AK activity)
[20] = 384-well format, cutoff for positive-scoring molecules 3-fold increase, read-out: AK-based Prestwick Library Screening Results, E. cloacae (increase in extracellular AK activity)
[21] = 384-well format, cutoff for positive-scoring molecules 3-fold increase, read-out: AK-based Prestwick Library Screening Results, S. aureus (increase in extracellular AK activity)
[22] = 384-well format, cutoff for positive-scoring molecules 3-fold increase, read-out: AK-based Prestwick Library Screening Results, E. faecium (increase in extracellular AK activity)
[23] = 384-well format, cutoff for positive-scoring molecules 3-fold increase, read-out: AK-based Prestwick Library Screening Results, P. aeruginosa (increase in extracellular AK activity)
[24] = 384-well format, cutoff for positive-scoring molecules 3-fold increase, read-out: AK-based Prestwick Library Screening Results, A. baumannii (increase in extracellular AK activity)
[25] = […], read-out: AK-based Prestwick Library Screening Results, E. coli (fold increase in extracellular AK activity)

O.O=C1C(O)=C(O)C(=O)C(O)=C1O [Tetrahydroxy-1,4-quinone monohydrate]
AK-based Prestwick Library Screening Results, E. coli (fold increase in extracellular AK activity) (E. coli; [3]): 0.9 | AK-based Prestwick Library Screening Results, K. pneumoniae (fold increase in extracellular AK activity) (K. pneumoniae; [3]): 0.8 | AK-based Prestwick Library Screening Results, E. cloacae (fold increase in extracellular AK activity) (E. cloacae; [3]): 1.3 | AK-based Prestwick Library Screening Results, S. aureus (fold increase in extracellular AK activity) [1, 3]: 0.8 | AK-based Prestwick Library Screening Results, E. faecium (fold increase in extracellular AK activity) (E. faecium; [3]): 0.9 | AK-based Prestwick Library Screening Results, P. aeruginosa (fold increase in extracellular AK activity) (P. aeruginosa; [3]): 0.9 | AK-based Prestwick Library Screening Results, A. baumannii (fold increase in extracellular AK activity) [2, 3]: 1.1

c1ccc2c(c1)CCCC2C1=NCCN1 (centres unmarked) [Tetrahydrozoline hydrochloride]
fold induction at 50 µM (E. coli; [4]): 1.4 | fold induction at 50 µM (K. pneumoniae; [5]): 0.9 | fold induction at 50 µM (E. cloacae; [6]): 1.4 | fold induction at 50 µM [1, 7]: 1.1 | fold induction at 50 µM (E. faecium; [8]): 1 | fold induction at 50 µM (P. aeruginosa; [9]): 1 | fold induction at 50 µM [2, 10]: 1

c1ccc(C2CN3CCSC3=N2)cc1 (centres unmarked) [Tetramisole hydrochloride]
fold induction at 50 µM (E. coli; [11]): 1.3 | fold induction at 50 µM (K. pneumoniae; [12]): 1.1 | fold induction at 50 µM (E. cloacae; [13]): 1.4 | fold induction at 50 µM [1, 14]: 1.1 | fold induction at 50 µM (E. faecium; [15]): 1 | fold induction at 50 µM (P. aeruginosa; [16]): 1.2 | fold induction at 50 µM [2, 17]: 1.4

COc1ccc2cc1Oc1ccc(cc1)C[C@H]1c3cc(c(OC)cc3CCN1C)Oc1c(OC)c(OC)cc3c1[C@H](C2)N(C)CC3 [Tetrandrine]
fold induction at 50 µM (E. coli; planktonic, cutoff for positive-scoring molecules 3-fold increase, read-out: AK-based Prestwick Library Screening Results, E. coli (fold increase in extracellular AK activity)): 0.9 | fold induction at 50 µM (K. pneumoniae; planktonic, cutoff for positive-scoring molecules 3-fold increase, read-out: AK-based Prestwick Library Screening Results, K. pneumoniae (fold increase in extracellular AK activity)): 0.9 | fold induction at 50 µM (E. cloacae; planktonic, cutoff for positive-scoring molecules 3-fold increase, read-out: AK-based Prestwick Library Screening Results, E. cloacae (fold increase in extracellular AK activity)): 1.1 | fold induction at 50 µM ([1]; planktonic, cutoff for positive-scoring molecules 3-fold increase, read-out: AK-based Prestwick Library Screening Results, S. aureus (fold increase in extracellular AK activity)): 0.9 | fold induction at 50 µM (E. faecium; planktonic, cutoff for positive-scoring molecules 3-fold increase, read-out: AK-based Prestwick Library Screening Results, E. faecium (fold increase in extracellular AK activity)): 1 | fold induction at 50 µM (P. aeruginosa; planktonic, cutoff for positive-scoring molecules 3-fold increase, read-out: AK-based Prestwick Library Screening Results, P. aeruginosa (fold increase in extracellular AK activity)): 0.9 | fold induction at 50 µM ([2]; planktonic, cutoff for positive-scoring molecules 3-fold increase, read-out: AK-based Prestwick Library Screening Results, A. baumannii (fold increase in extracellular AK activity)): 0.9

O=C1CCC(N2C(=O)c3ccccc3C2=O)C(=O)N1 (centres unmarked) [Thalidomide]
fold induction at 50 µM (E. coli; [18]): 1 | fold induction at 50 µM (K. pneumoniae; [19]): 0.8 | fold induction at 50 µM (E. cloacae; [20]): 1.1 | fold induction at 50 µM [1, 21]: 1 | fold induction at 50 µM (E. faecium; [22]): 1 | fold induction at 50 µM (P. aeruginosa; [23]): 0.9 | fold induction at 50 µM [2, 24]: 0.9

Cn1cnc2c1c(=O)[nH]c(=O)n2C [Theobromine]
fold induction at 50 µM (E. coli; [4]): 1.2 | fold induction at 50 µM (K. pneumoniae; [5]): 1.2 | fold induction at 50 µM (E. cloacae; [6]): 1.4 | fold induction at 50 µM [1, 7]: 1.3 | fold induction at 50 µM (E. faecium; [8]): 1.1 | fold induction at 50 µM (P. aeruginosa; [9]): 1.2 | fold induction at 50 µM [2, 10]: 1.1

Cn1c(=O)c2[nH]cnc2n(C)c1=O [Theophylline monohydrate]
fold induction at 50 µM (E. coli; [25]): 1.2 | fold induction at 50 µM (K. pneumoniae; […], read-out: AK-based Prestwick Library Screening Results, K. pneumoniae (fold increase in extracellular AK activity)): 1.1 | fold induction at 50 µM (E. cloacae; […], read-out: AK-based Prestwick Library Screening Results, E. cloacae (fold increase in extracellular AK activity)): 1.3 | fold induction at 50 µM ([1]; […], read-out: AK-based Prestwick Library Screening Results, S. aureus (fold increase in extracellular AK activity)): 1.3 | fold induction at 50 µM (E. faecium; […], read-out: AK-based Prestwick Library Screening Results, E. faecium (fold increase in extracellular AK activity)): 1 | fold induction at 50 µM (P. aeruginosa; […], read-out: AK-based Prestwick Library Screening Results, P. aeruginosa (fold increase in extracellular AK activity)): 1.2 | fold induction at 50 µM ([2]; […], read-out: AK-based Prestwick Library Screening Results, A. baumannii (fold increase in extracellular AK activity)): 1.2

Cc1ncc(C[n+]2csc(CCO)c2C)c(N)n1 [Thiamine hydrochloride]
fold induction at 50 µM (E. coli; [11]): 1.4 | fold induction at 50 µM (K. pneumoniae; [12]): 1.4 | fold induction at 50 µM (E. cloacae; [13]): 1.3 | fold induction at 50 µM [1, 14]: 1.1 | fold induction at 50 µM (E. faecium; [15]): 1 | fold induction at 50 µM (P. aeruginosa; [16]): 1.3 | fold induction at 50 µM [2, 17]: 1.3

CS(=O)(=O)c1ccc([C@@H](O)[C@@H](CO)NC(=O)C(Cl)Cl)cc1 [Thiamphenicol]
fold induction at 50 µM (E. coli; [18]): 0.9 | fold induction at 50 µM (K. pneumoniae; [19]): 0.4 | fold induction at 50 µM (E. cloacae; [20]): 1.4 | fold induction at 50 µM [1, 21]: 8.7 | fold induction at 50 µM (E. faecium; [22]): 0.9 | fold induction at 50 µM (P. aeruginosa; [23]): 0.8 | fold induction at 50 µM [2, 24]: 0.9

COc1c(O[C@@H]2O[C@H](CO)[C@@H](O)[C@H](O)[C@H]2O)cc2c(c1OC)-c1ccc(SC)c(=O)cc1[C@@H](NC(C)=O)CC2 [Thiocolchicoside]
fold induction at 50 µM (E. coli; planktonic, […], read-out: AK-based Prestwick Library Screening Results, E. coli (fold increase in extracellular AK activity)): 1 | fold induction at 50 µM (K. pneumoniae; planktonic, […], read-out: AK-based Prestwick Library Screening Results, K. pneumoniae (fold increase in extracellular AK activity)): 0.8 | fold induction at 50 µM (E. cloacae; planktonic, […], read-out: AK-based Prestwick Library Screening Results, E. cloacae (fold increase in extracellular AK activity)): 1.7 | fold induction at 50 µM ([1]; planktonic, […], read-out: AK-based Prestwick Library Screening Results, S. aureus (fold increase in extracellular AK activity)): 1.2 | fold induction at 50 µM (E. faecium; planktonic, […], read-out: AK-based Prestwick Library Screening Results, E. faecium (fold increase in extracellular AK activity)): 1.1 | fold induction at 50 µM (P. aeruginosa; planktonic, […], read-out: AK-based Prestwick Library Screening Results, P. aeruginosa (fold increase in extracellular AK activity)): 1 | fold induction at 50 µM ([2]; planktonic, […], read-out: AK-based Prestwick Library Screening Results, A. baumannii (fold increase in extracellular AK activity)): 0.9

S=C(NC1CCCCC1)N1CCC(c2cnc[nH]2)CC1 [Thioperamide maleate]
fold induction at 50 µM (E. coli; [25]): 1.2 | fold induction at 50 µM (K. pneumoniae; [5]): 1 | fold induction at 50 µM (E. cloacae; [6]): 1.6 | fold induction at 50 µM [1, 7]: 1.1 | fold induction at 50 µM (E. faecium; [8]): 1 | fold induction at 50 µM (P. aeruginosa; [9]): 1.3 | fold induction at 50 µM [2, 10]: 1
